Results: ChEMBL document CHEMBL1909046, “DrugMatrix in vitro pharmacology data”

Assays:
[1] = target: T1, Type-2 angiotensin II receptor (Homo sapiens, UniProt P50052); format: cell-based; settings: cho-k1; further: in other assays of this panel Not Active means under 50% inhibition at 10 µM
T1 sequence (P50052 whole entry): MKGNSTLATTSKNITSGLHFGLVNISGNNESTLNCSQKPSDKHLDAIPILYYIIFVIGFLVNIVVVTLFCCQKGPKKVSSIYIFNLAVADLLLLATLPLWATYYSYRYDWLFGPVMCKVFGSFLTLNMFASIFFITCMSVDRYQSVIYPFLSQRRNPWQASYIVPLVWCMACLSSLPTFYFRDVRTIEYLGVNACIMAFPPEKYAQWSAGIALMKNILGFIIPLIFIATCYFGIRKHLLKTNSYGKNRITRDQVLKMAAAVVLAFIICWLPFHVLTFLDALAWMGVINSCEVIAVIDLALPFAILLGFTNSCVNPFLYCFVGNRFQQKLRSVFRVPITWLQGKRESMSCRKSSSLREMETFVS

[2] = target: T2, 5-hydroxytryptamine receptor 2C (Homo sapiens, UniProt P28335); assay: DRUGMATRIX: Serotonin (5-Hydroxytryptamine) 5-HT2C radioligand binding (ligand: [3H] Mesulergine); format: cell membranes, CHO-K1, Membrane; settings: cho-k1; Not Active = under 50% inhibition at 10 µM
T2 sequence (P28335 whole entry): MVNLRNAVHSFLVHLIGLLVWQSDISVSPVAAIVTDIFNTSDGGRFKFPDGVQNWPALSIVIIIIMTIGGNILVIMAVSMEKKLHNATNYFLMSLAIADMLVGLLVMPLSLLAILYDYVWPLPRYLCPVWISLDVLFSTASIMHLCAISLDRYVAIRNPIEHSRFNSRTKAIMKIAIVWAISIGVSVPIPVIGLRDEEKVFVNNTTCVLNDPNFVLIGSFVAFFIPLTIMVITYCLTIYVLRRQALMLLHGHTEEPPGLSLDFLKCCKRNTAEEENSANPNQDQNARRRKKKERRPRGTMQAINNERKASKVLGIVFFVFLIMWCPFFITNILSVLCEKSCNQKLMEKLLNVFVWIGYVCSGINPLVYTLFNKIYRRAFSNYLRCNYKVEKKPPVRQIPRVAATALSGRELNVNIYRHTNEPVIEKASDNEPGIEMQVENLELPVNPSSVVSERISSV

[3] = target: T3, C-X-C chemokine receptor type 2 (Homo sapiens, UniProt P25025); format: cell membranes, Membrane; settings: cho-k1; further: in other assays of this panel Not Active means under 50% inhibition at 10 µM
T3 sequence (P25025 whole entry): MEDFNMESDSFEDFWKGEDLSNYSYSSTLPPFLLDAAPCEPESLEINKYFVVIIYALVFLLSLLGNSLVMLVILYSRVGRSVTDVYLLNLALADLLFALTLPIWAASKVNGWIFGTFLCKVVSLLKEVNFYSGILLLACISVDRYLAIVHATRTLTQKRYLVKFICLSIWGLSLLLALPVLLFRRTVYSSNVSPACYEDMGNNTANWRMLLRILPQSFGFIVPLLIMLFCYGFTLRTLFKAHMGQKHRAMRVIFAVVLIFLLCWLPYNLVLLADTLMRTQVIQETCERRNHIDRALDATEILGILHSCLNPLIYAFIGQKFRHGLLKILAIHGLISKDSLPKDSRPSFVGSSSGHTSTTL

[4] = target: T4, Neuropeptide Y receptor type 1 (Homo sapiens, UniProt P25929); format: cell membranes, Membrane; settings: sk-n-mc; further: in other assays of this panel Not Active means under 50% inhibition at 10 µM
T4 sequence (P25929 whole entry): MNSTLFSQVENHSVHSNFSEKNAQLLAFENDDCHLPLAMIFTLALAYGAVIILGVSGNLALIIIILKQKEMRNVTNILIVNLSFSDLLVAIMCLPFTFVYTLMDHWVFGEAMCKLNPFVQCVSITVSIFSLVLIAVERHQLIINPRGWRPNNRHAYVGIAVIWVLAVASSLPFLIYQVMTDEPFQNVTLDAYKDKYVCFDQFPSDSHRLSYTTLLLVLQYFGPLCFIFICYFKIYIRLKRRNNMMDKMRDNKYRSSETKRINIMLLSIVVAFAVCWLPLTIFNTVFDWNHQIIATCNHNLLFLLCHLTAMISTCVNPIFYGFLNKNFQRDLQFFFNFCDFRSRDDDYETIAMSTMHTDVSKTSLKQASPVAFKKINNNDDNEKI

[5] = target: T5, Nitric oxide synthase, inducible (Mus musculus, UniProt P29477); parameters: species or system Escherichia coli;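 further: inhibition of iNOS enzyme activity measured with L-arginine as substrate; in other assays of this panel Not Active means under 50% inhibition at 10 µM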
T5 sequence (P29477 whole entry): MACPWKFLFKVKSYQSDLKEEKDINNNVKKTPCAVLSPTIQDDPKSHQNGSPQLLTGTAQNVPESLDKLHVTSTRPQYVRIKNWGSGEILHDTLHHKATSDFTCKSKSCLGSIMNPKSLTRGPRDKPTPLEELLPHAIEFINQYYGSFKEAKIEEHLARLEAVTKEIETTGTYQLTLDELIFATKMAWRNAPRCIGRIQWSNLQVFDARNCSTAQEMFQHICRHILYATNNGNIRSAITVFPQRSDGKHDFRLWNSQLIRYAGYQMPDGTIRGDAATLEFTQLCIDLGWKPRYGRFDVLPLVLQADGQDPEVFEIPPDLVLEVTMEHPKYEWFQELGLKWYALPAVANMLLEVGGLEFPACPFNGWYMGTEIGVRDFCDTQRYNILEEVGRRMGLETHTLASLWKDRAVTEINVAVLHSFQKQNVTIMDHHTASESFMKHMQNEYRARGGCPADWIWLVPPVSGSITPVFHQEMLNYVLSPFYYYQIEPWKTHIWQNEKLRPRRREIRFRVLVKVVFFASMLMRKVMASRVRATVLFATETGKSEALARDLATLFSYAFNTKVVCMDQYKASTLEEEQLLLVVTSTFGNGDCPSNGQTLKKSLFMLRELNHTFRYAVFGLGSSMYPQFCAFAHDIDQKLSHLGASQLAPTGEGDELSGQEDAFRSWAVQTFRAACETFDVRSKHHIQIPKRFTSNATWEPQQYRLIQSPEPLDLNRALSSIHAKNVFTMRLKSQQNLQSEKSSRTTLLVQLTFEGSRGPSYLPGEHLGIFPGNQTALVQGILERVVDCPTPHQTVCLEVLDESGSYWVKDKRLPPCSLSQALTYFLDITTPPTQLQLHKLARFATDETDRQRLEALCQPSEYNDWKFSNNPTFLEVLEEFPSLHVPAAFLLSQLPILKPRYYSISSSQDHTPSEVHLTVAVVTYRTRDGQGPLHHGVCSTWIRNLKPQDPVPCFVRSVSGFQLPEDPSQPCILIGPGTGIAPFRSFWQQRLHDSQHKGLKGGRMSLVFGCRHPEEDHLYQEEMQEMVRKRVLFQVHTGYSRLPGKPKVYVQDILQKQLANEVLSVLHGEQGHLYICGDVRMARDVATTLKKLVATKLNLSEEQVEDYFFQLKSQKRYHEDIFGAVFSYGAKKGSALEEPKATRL

[6] = DRUGMATRIX: Phorbol Ester radioligand binding (ligand: [3H] PDBu); format: cell membranes, Mus musculus, ICR, Brain, Membrane; settings: Not Active = under 50% inhibition at 10 µM

COc1cc(NS(=O)(=O)c2ccc(N)cc2)nc(OC)n1 [SULFADIMETHOXINE]
Not Active: IC50 [1] | IC50 [2] | IC50 [3] | IC50 [4] | IC50 [5] | IC50 [6] | Ki [6]

Cc1cc(C)nc(NS(=O)(=O)c2ccc(N)cc2)n1 [SULFAMETHAZINE]
Not Active: IC50 [1] | IC50 [2] | IC50 [3] | IC50 [4] | IC50 [5] | IC50 [6] | Ki [6]

C[C@]1(Cn2ccnn2)[C@H](C(=O)O)N2C(=O)C[C@H]2S1(=O)=O [TAZOBACTAM]
Not Active: IC50 [1] | IC50 [2] | IC50 [3] | IC50 [4] | IC50 [5] | IC50 [6] | Ki [6]

CN1C(C(=O)Nc2ccccn2)=C(O)c2sccc2S1(=O)=O [TENOXICAM]
Not Active: IC50 [1] | IC50 [2] | IC50 [3] | IC50 [4] | IC50 [5] | IC50 [6] | Ki [6]

O=C1CCC(N2C(=O)c3ccccc3C2=O)C(=O)N1 (centres undefined) [THALIDOMIDE]
Not Active: IC50 [1] | IC50 [2] | IC50 [3] | IC50 [4] | IC50 [5] | IC50 [6] | Ki [6]

Cc1cccc(Nc2ccncc2S(=O)(=O)NC(=O)NC(C)C)c1 [TORSEMIDE]
Not Active: IC50 [1] | IC50 [2] | IC50 [3] | IC50 [4] | IC50 [5] | IC50 [6] | Ki [6]

CC(C)C[C@H](NC(=O)[C@@H](O)[C@H](N)Cc1ccccc1)C(=O)O [UBENIMEX]
Not Active: IC50 [1] | IC50 [2] | IC50 [3] | IC50 [4] | IC50 [5] | IC50 [6] | Ki [6]

Cc1onc(-c2ccccc2)c1-c1ccc(S(N)(=O)=O)cc1 [VALDECOXIB]
Not Active: IC50 [1] | IC50 [2] | IC50 [3] | IC50 [4] | IC50 [5] | IC50 [6] | Ki [6]

CC[C@]1(O)C[C@@H]2CN(CCc3c([nH]c4ccccc34)[C@@](C(=O)OC)(c3cc4c(cc3OC)N(C)[C@H]3[C@@](O)(C(=O)OC)[C@H](OC(C)=O)[C@]5(CC)C=CCN6CC[C@]43[C@@H]65)C2)C1 [VINBLASTINE]
Not Active: IC50 [1] | IC50 [2] | IC50 [3] | IC50 [4] | IC50 [5] | IC50 [6] | Ki [6]

CC(=O)CC(c1ccccc1)c1c(O)c2ccccc2oc1=O (centres undefined) [WARFARIN]
Not Active: IC50 [1] | IC50 [2] | IC50 [3] | IC50 [4] | IC50 [5] | IC50 [6] | Ki [6]

C[C@@H](N)[C@H]1CC[C@H](C(=O)Nc2ccncc2)CC1 [Y-27632]
Not Active: IC50 [1] | IC50 [2] | IC50 [3] | IC50 [4] | IC50 [5] | IC50 [6] | Ki [6]

[Cl-].[Cl-].[Zn+2] [ZINC CHLORIDE]
Not Active: IC50 [1] | IC50 [2] | IC50 [3] | IC50 [4] | IC50 [5] | IC50 [6] | Ki [6]
